# System: not given
# Test: not given
# Conditions: not given
row,SMILES,melting point [°C]
1,"CCCC1Oc2ccc(C(=O)O)cc2N(Cc2ccc(-c3ccccc3-c3nnn[nH]3)cc2)C1=O (stereo not shown) [Example 14, 3-oxo-2-propyl-4-[[4-[2-(1H-tetrazol-5-yl)phenyl]phenyl]methyl]-2H-benzo[e]1,4-oxazine-6-carboxylic acid]",197 to 198
2,"CCc1nc2c(C)cc(C)nc2n1Cc1ccc(C2SC(=O)NC2=O)cc1 (stereo not shown) [Example 18, 5-[4-[(2-ethyl-5,7-dimethylimidazo[4,5-b]pyridin-3-yl)methyl]phenyl]-1,3-thiazolidine-2,4-dione]",221 to 222

# System: pentosidine (AGEs) formation in serum of kidney failure patients
# Test: AGEs formation inhibitory effect (pentosidine production in serum protein, HPLC)
# Format: biochemical, human
# Conditions: test compound final concentration 5 mM, incubated at 37° C. for one week, proportion to pentosidine production amount by control
# Protocol: AGEs Formation Inhibitory Effect
# A solution (50 μl) of the test compound (final concentration 5 mM) in dimethyl sulfoxide was added to a protein (450 μl, serum of kidney failure patients who gave informed consent), and the mixture was incubated at 37° C. for one week. Pentosidine, which is one of the AGEs produced, was measured as follows. To separate pentosidine produced in the protein, 10% trichloroacetic acid (50 μl) was added to the sample after the reaction (50 μl) and the mixture was centrifuged and the precipitated protein was recovered. The recovered protein was washed with 300 μl of 5% trichloroacetic acid, dried and hydrolyzed with 6N hydrochloric acid (100 μl) at 110° C. for 16 hrs. The amount (nmol/l) of pentosidine produced was measured by HPLC (ODS C18, 4.6×250 mm, 335 nm, 385 nm) using a fluorescence detector by the gradient of 30 min., 1.0 ml/min with 0.1% trifluoroacetic acid added distilled water/0.08% trifluoroacetic acid added 80% acetonitrile as a mobile phase (Miyata, T et al.: J. Am. Soc. Nephrol., 7, 1198-1206, 1996, and Miyata, T. et al.: Proc. Natl. Acad. Sci. USA, 93 2353-2358, 1996).
# To study AGEs formation inhibitory effect, the proportion of the aforementioned pentosidine production amount to the pentosidine production amount by control was calculated as pentosidine production rate (%).
row,SMILES,pentosidine production rate (%)
1,"CCCCC(=O)N(Cc1ccc(-c2ccccc2-c2nnn[nH]2)cc1)c1cccc(C(=O)OCc2oc(=O)oc2C)c1 [Example 6, (5-methyl-2-oxo-1,3-dioxolen-4-yl)methyl3-[N-[[4-[2-(1H-tetrazol-5-yl)phenyl]phenyl]methyl]-N-pentanoylamino]benzoate]",16.8
2,"CCCC1Cc2cc(C(=O)O)ccc2N(Cc2ccc(-c3ccccc3-c3nnn[nH]3)cc2)C1=O (stereo not shown) [Example 11, 2-oxo-3-propyl-1-[[4-[2-(1H-tetrazol-5-yl)phenyl]phenyl]methyl]-1,3,4-trihydroquinoline-6-carboxylic acid]",24.9
3,"CCCCCCCC(=O)N(Cc1ccc(-c2ccccc2-c2nnn[nH]2)cc1)c1cccc(C(=O)O)c1 [Example 5, 3-[N-[[4-[2-(1H-tetrazol-5-yl)phenyl]phenyl]methyl]-N-octanoylamino]benzoic acid]",9.33
4,"CCCC1Oc2ccc(C(=O)O)cc2N(Cc2ccc(-c3nnn[nH]3)cc2)C1=O (stereo not shown) [Example 15, 3-oxo-2-propyl-4-[4-[4-(1H-tetrazol-5-yl)phenyl]methyl]2-H-benzo[e]1,4-oxazine-6-carboxylic acid]",23.8
5,"CCCCC(=O)N(Cc1ccc(-c2ccccc2-c2nnn[nH]2)cc1)c1ccc(C(=O)O)cc1 [Example 9, 4-[N-[[4-[2-(1H-tetrazol-5-yl)phenyl]phenyl]methyl]-N-pentanoylamino]benzoic acid]",30.8
6,"CCCCC(=O)N(Cc1ccc(-c2ccccc2-c2nnn[nH]2)cc1)c1ccccc1C(=O)O [Example 8, 2-[N-[[4-[2-(1H-tetrazol-5-yl)phenyl]phenyl]methyl]-N-pentanoylamino]benzoic acid]",23.5
7,"CCCCC(=O)N(Cc1ccc(C2SC(=O)NC2=O)cc1)c1cccc(C(=O)O)c1 (stereo not shown) [Example 22, 3-[N-[4-(2,4-dioxothiazolidin-5-yl)benzyl]-N-pentanoylamino]benzoic acid]",12.4
8,"O=C1CCc2ccccc2N1Cc1ccc(-c2ccccc2-c2nnn[nH]2)cc1 [Example 13, 1-[[4-[2-(1H-tetrazol-5-yl)phenyl]phenyl]methyl]-1,3,4-trihydroquinolin-2-one]",45.4
9,"CCCC1Sc2ccc(C(=O)O)cc2N(Cc2ccc(-c3nnn[nH]3)cc2)C1=O (stereo not shown) [Example 17, 3-oxo-2-propyl-4-[[4-(1H-tetrazol-5-yl)phenyl]methyl]2-H-benzo[e]1,4-thiazine-6-carboxylic acid]",35.0
10,"CCCCC(=O)N(Cc1ccc(-c2ccccc2-c2nnn[nH]2)cc1)c1cccc(C(=O)O)c1 [Example 1, 3-[N-[[4-[2-(1H-tetrazol-5-yl)phenyl]phenyl]methyl]-N-pentanoylamino]benzoic acid]",18.1
11,"CCC(=O)N(Cc1ccc(-c2ccccc2-c2nnn[nH]2)cc1)c1cccc(C(=O)O)c1 [Example 3, 3-[N-[[4-[2-(1H-tetrazol-5-yl)phenyl]phenyl]methyl]-N-propanoylamino]benzoic acid]",21.3
12,"CCCC(=O)N(Cc1ccc(-c2ccccc2-c2nnn[nH]2)cc1)c1cccc(C(=O)O)c1 [Example 4, 3-[N-[[4-[2-(1H-tetrazol-5-yl)phenyl]phenyl]methyl]-N-butanoylamino]benzoic acid]",17.4
13,"CCCc1nc2c(C)cc(C)nc2n1Cc1ccc(C2SC(=O)NC2=O)cc1 (stereo not shown) [Example 19, 5-[4-[(5,7-dimethyl-2-propylimidazo[4,5-b]pyridin-3-yl)methyl]phenyl]-1,3-thiazolidine-2,4-dione]",23.8
14,"CCCC1Cc2ccc(C(=O)OCc3oc(=O)oc3C)cc2N(Cc2ccc(-c3ccccc3-c3nnn[nH]3)cc2)C1=O (stereo not shown) [Example 12, (5-methyl-2-oxo-1,3-dioxolen-4-yl)methyl2-oxo-3-propyl-1-[[4-[2-(1H-tetrazol-5-yl)phenyl]phenyl]methyl]-1,3,4-trihydroquinoline-7-carboxylate]",29.0
15,"CCCC1Oc2ccc(C(=O)O)cc2N(Cc2ccc(-c3ccccc3-c3nnn[nH]3)cc2)C1=O (stereo not shown) [Example 14, 3-oxo-2-propyl-4-[[4-[2-(1H-tetrazol-5-yl)phenyl]phenyl]methyl]-2H-benzo[e]1,4-oxazine-6-carboxylic acid]",22.1
16,"CCCC1Sc2ccc(C(=O)O)cc2N(Cc2ccc(-c3ccccc3-c3nnn[nH]3)cc2)C1=O (stereo not shown) [Example 16, 3-oxo-2-propyl-4-[[4-[2-(1H-tetrazol-5-yl)phenyl]phenyl]methyl]-2H-benzo[e]1,4-thiazine-6-carboxylic acid]",25.8
17,"CCc1nc2c(C)cc(C)nc2n1Cc1ccc(C2SC(=O)NC2=O)cc1 (stereo not shown) [Example 18, 5-[4-[(2-ethyl-5,7-dimethylimidazo[4,5-b]pyridin-3-yl)methyl]phenyl]-1,3-thiazolidine-2,4-dione]",18.0
18,"CCCCC(=O)N(Cc1ccc(-c2nnn[nH]2)cc1)c1cccc(C(=O)O)c1 [Example 7, 3-[N-[[4-(1H-tetrazol-5-yl)phenyl]methyl]-N-pentanoylamino]benzoic acid]",27.2
19,"CCCC1Cc2ccc(C(=O)O)cc2N(Cc2ccc(-c3ccccc3-c3nnn[nH]3)cc2)C1=O (stereo not shown) [Example 10, 2-oxo-3-propyl-1-[[4-[2-(1H-tetrazol-5-yl)phenyl]phenyl]methyl]-1,3,4-trihydroquinoline-7-carboxylic acid]",18.0
20,"CC(=O)N(Cc1ccc(-c2ccccc2-c2nnn[nH]2)cc1)c1cccc(C(=O)O)c1 [Example 2, 3-[N-[[4-[2-(1H-tetrazol-5-yl)phenyl]phenyl]methyl]-N-acetylamino]benzoic acid]",26.1

# Reference: patent US7417052B2, “Phenylene derivative having tetrazole ring or thiazolidinedione ring” (Sankyo Company, Limited, priority 2003, dated 2008)
